Assay results: US10238670B2, “9-aminomethyl minocycline compounds and methods of use thereof in urinary tract infection (UTI) treatment” (Paratek Pharmaceuticals, Inc., priority 2016, dated 2019)
≈ marks a conversion by molar mass, not a printed value.

What was measured:
E. coli (ESBL phenotype) = experiment: Broth microdilution MIC against UTI pathogens (Example 4); format: cell-based; settings: Escherichia coli; 2,743 isolates
Description: (§1) Antimicrobial activities of Compound 1 against a variety of common pathogens found in UTI were determined using a standard broth microdilution method (CLSI in Methods for Dilution Antimicrobial Susceptibility Tests for Bacteria That Grow Aerobically, Approved Standard M7-A8, Clinical and Laboratory Standards Institute, Wayne, Pa. (USA), 2011, incorporated herein by reference) with slight modifications.

[1] = system: E. coli (non-ESBL phenotype); experiment: as above; format: cell-based; settings: Escherichia coli; 10,696 isolates
Description: as §1

[2] = system: E. coli (Carbapenem Resistant); experiment: as above; format: cell-based; settings: Escherichia coli; 25 isolates
Description: as §1

[3] = Phase 1b study, investigator's assessment of clinical response (EOT, PTE); format: in vivo, human
Description: b) Investigator's Assessment of Clinical Response Investigator's Assessment of Clinical Response at EOT
The EOT visit was conducted on Day 6. This evaluation was also conducted for any prematurely withdrawn subject. The following assessments were performed at the EOT visit: subject assessment of UTI signs and symptoms severity, urine culture and leukocyte esterase dipstick test or microscopic examination, physical examination, vital signs, 12-lead ECG, hematology and serum chemistry, serum pregnancy test (all subjects) and investigator's assessment of clinical response. Subjects, who discontinued study treatment before completing the study, and those who prematurely withdrew from the study for any reason, were scheduled for a visit as soon as possible, at which time all of the assessments listed for the EOT visit were performed.
It was determined whether the subject met the criteria of 1 of the following clinical outcomes: • Clinical Success: Resolution of signs and symptoms at the EOT visit and no use of additional antimicrobial therapy. • Clinical Failure: No apparent response to therapy, persistence of signs and symptoms of infection at the EOT visit, or use of additional antimicrobial therapy for the current infection. • Indeterminate: EOT visit not completed. Investigator's Assessment of Clinical Response at PTE
The PTE visit was conducted 5 to 9 days after the subject's last day of therapy. This evaluation was also conducted for any prematurely withdrawn subject. The following assessments were performed at the PTE visit: urine culture and leukocyte esterase dipstick test or microscopic examination, physical examination, vital signs, hematology, serum chemistry, serum pregnancy test (all subjects), and investigator's assessment of clinical response.
It was determined whether the subject met the criteria of 1 of the following clinical outcomes: • Clinical Success: Resolution of signs and symptoms at the PTE visit and no use of additional antimicrobial therapy. • Clinical Failure: No apparent response to therapy, persistence of signs and symptoms of infection, or reappearance of signs and symptoms at or before the PTE visit, or use of additional antimicrobial therapy for the current infection. • Indeterminate: PTE visit not completed.
Investigator's assessment of clinical response at the EOT and PTE visits with outcomes of Clinical Success, Clinical Failure or Indeterminate as defined above. Subjects who were a clinical failure at an earlier time point were considered a clinical failure at subsequent time points. The number and percentage of subjects with an Investigator's assessment of success, failure and indeterminate were presented for EOT and PTE visits by treatment group.

CN(C)c1cc(CNCC(C)(C)C)c(O)c2c1C[C@H]1C[C@H]3[C@H](N(C)C)C(O)=C(C(N)=O)C(=O)[C@@]3(O)C(O)=C1C2=O [Compound 1, 9-[(2,2-dimethyl-propylamino)-methyl]-minocycline]
MIC50 (E. coli (ESBL phenotype)): 1 µg/mL (≈ 1.8 µM)
MIC90 (E. coli (ESBL phenotype)): 4 µg/mL (≈ 7.19 µM)
MIC50 [1]: 0.5 µg/mL (≈ 0.898 µM)
MIC90 [1]: 2 µg/mL (≈ 3.59 µM)
MIC50 [2]: 1 µg/mL (≈ 1.8 µM)
MIC90 [2]: 4 µg/mL (≈ 7.19 µM)
Reason for Clinical Failure: Persistence of signs and symptoms of infection at or before current visit ([3]; EOT, IV_PO300): 0 (0.0) n (%)
Clinical Failure ([3]; EOT, IV_PO300 (N = 11)): 0 (0.0) n (%)
Clinical Success ([3]; EOT, IV_PO300 (N = 11)): 10 (90.9) n (%)
Indeterminate ([3]; EOT, IV_PO300 (N = 11)): 1 (9.1) n (%)
Reason for Clinical Failure: Persistence of signs and symptoms of infection at or before current visit ([3]; EOT, PO300): 0 (0.0) n (%)
Clinical Failure ([3]; EOT, PO300 (N = 10)): 0 (0.0) n (%)
Clinical Success ([3]; EOT, PO300 (N = 10)): 10 (100.0) n (%)
Indeterminate ([3]; EOT, PO300 (N = 10)): 0 (0.0) n (%)
Reason for Clinical Failure: Persistence of signs and symptoms of infection at or before current visit ([3]; EOT, PO450): 1 (100.0) n (%)
Clinical Failure ([3]; EOT, PO450 (N = 10)): 1 (10.0) n (%)
Clinical Success ([3]; EOT, PO450 (N = 10)): 9 (90.0) n (%)
Indeterminate ([3]; EOT, PO450 (N = 10)): 0 (0.0) n (%)
Reason for Clinical Failure: Persistence of signs and symptoms of infection at or before current visit ([3]; PTE, IV_PO300): 0 (0.0) n (%)
Reason for Clinical Failure: Use of additional systemic antimicrobial therapy for the current infection ([3]; PTE, IV_PO300): 0 (0.0) n (%)
Clinical Failure ([3]; PTE, IV_PO300 (N = 11)): 0 (0.0) n (%)
Clinical Success ([3]; PTE, IV_PO300 (N = 11)): 11 (100.0) n (%)
Indeterminate ([3]; PTE, IV_PO300 (N = 11)): 0 (0.0) n (%)
Reason for Clinical Failure: Persistence of signs and symptoms of infection at or before current visit ([3]; PTE, PO300): 2 (100.0) n (%)
Reason for Clinical Failure: Use of additional systemic antimicrobial therapy for the current infection ([3]; PTE, PO300): 0 (0.0) n (%)
Clinical Failure ([3]; PTE, PO300 (N = 10)): 2 (20.0) n (%)
Clinical Success ([3]; PTE, PO300 (N = 10)): 7 (70.0) n (%)
Indeterminate ([3]; PTE, PO300 (N = 10)): 0 (0.0) n (%)
Reason for Clinical Failure: Persistence of signs and symptoms of infection at or before current visit ([3]; PTE, PO450): 1 (50.0) n (%)
Reason for Clinical Failure: Use of additional systemic antimicrobial therapy for the current infection ([3]; PTE, PO450): 1 (50.0) n (%)
Clinical Failure ([3]; PTE, PO450 (N = 10)): 2 (20.0) n (%)
Clinical Success ([3]; PTE, PO450 (N = 10)): 8 (80.0) n (%)
Indeterminate ([3]; PTE, PO450 (N = 10)): 0 (0.0) n (%)
